3 compounds from US20070099237A1, “Reaction co-crystallization of molecular complexes or co-crystals” (The Regents of The University of Michigan, priority 2005, published 2007) can be followed below.

Values after ≈ are worked out from the molar mass of the structure shown. Like-named read-outs stand apart in the source and are kept apart here.

The data set is described as follows: Solubility of co-crystal and reactants in organic solvents at 25° C. Type of data set: physicochemical. The note with it: mean +/− deviation; for solubility: organic solvent or mixture, thermodynamic from solid. On the procedure:
The predicted reduction in solubility of the co-crystal is borne out experimentally as illustrated, for example in FIG. 4, which uses the carbamazepine nicotinamide 1:1 co-crystal (CBZ:NCT) for illustration. The CBZ:NCT co-crystal is known; solubilities for the co-crystal and the reactants CBZ and NCT in three solvents (ethanol, […]) are given in the table.
Solubilities are given at 25° C. and are expressed as the mean +/− the deviation for a sample size of 3. It is noted that only in ethyl acetate is the co-crystal the least soluble component. Accordingly, the co-crystal can be precipitated from equimolar solutions of CBZ and NCT in ethyl acetate to produce the co-crystal by cooling or evaporation methods.

Where [1] appears, read: 2-propanol, sample size 3, read-out: Solubility in 2-Propanol.
Where [2] appears, read: ethanol, sample size 3, read-out: Solubility in Ethanol.
The mark [3] stands for this setting: ethyl acetate, sample size 3, read-out: Solubility in Ethyl acetate.

As a reminder, the solubility is how much of the substance goes into solution per volume. As to `NC(=O)N1c2ccccc2C=Cc2ccccc21` [CBZ(III), carbamazepine], the solubility under setting [1] was found to be 39 ± 3 mM (≈ 9.21 mg/mL), the solubility under setting [2] worked out at 108 ± 0.1 mM (≈ 25.5 mg/mL) and the solubility under setting [3] was determined as 44 ± 0.1 mM (≈ 10.4 mg/mL).

For the compound `NC(=O)N1c2ccccc2C=Cc2ccccc21.NC(=O)c1cccnc1` [CBZ:NCT, Carbamazepine:Nicotinamide co-crystal], the “Solubility in 2-Propanol” value (2-propanol, sample size 3) was 44 ± 3 mM. Besides, the “Solubility in Ethanol” value (ethanol, sample size 3) was determined as 116 ± 3 mM. For the same compound, the “Solubility in Ethyl acetate” value (ethyl acetate, sample size 3) is 24 ± 1 mM.

For the compound `NC(=O)c1cccnc1` [NCT(I), Nicotinamide], the solubility reads like this: under setting [1], 496 ± 4 mM (≈ 60.6 mg/mL); under setting [2], 841 ± 8 mM (≈ 103 mg/mL); under setting [3], 98 ± 2 mM (≈ 12 mg/mL).
